Measurements published in publication PMC11811597, “Phenomics‐Based Discovery of Novel Orthosteric Choline Kinase Inhibitors” (Angewandte Chemie (International Ed. in English), 2025).
“Also recorded” adds a separate entry of the source. Where two headings read alike, the source gives them in different places.

Experiments:
[1] = tested on: choline metabolism in MCF7 cells; test: NMR choline metabolite analysis; assay type: cell-based, human; conditions: for extracellular choline uptake: dose-dependent
Experimental: NMR Choline Metabolite Analysis
Sample preparation for the quantification of metabolites by nuclear magnetic resonance (NMR) spectroscopy was performed as described previously.[13] Briefly, 0.3 mL of cell culture medium (conditioned medium) was collected from each sample and mixed with 2 volumes of pre-chilled methanol (< -70 °C), vortexed for 30 s and placed on dry ice for at least 30 min. Following centrifugation for 20 min at 18100 × g and 0 °C, the supernatant extract of culture medium was dried and stored until NMR analysis. The remaining culture medium from each sample was discarded and cells were washed once with PBS (37 °C), and quenched with liquid nitrogen. Polar metabolites were extracted with 1.4 mL of an ice-cold solution of 67.5:7.5:25 (v/v/v) of methanol/chloroform/water.
Samples were centrifuged at 18100 × g for 15 min at 0 °C and the supernatant consisted of intracellular polar metabolites was collected and dried under nitrogen gas stream. The remaining cell pellets were used for protein mass quantification using the Pierce™ BCA Protein Assay Kit (Thermo Scientific™).
Samples from both cell culture medium and cell extracts were reconstituted in 220 µL of 50 mM phosphate buffer (pH 7.4) solution in deuterated water containing 0.05 mM trimethylsilyl propionic-d4-sodium salt (TSP-d4, Cambridge Isotope Laboratories, Inc.) as internal standard used for NMR referencing and quantification. One NMR experiment (pulse sequence: noesygppr1d; Bruker Biospin) was collected for each sample in a 14.1 T (600 MHz for 1H) Bruker Avance Neo NMR. All recorded NMR spectra were imported in Chenomx NMR suite 9.0 (Chenomx NMR suite, v9.0) for the quantification of choline, phosphocholine sn-glycero-phosphocholine (GPC) and betaine. Quantitative data (nmoles or μM) were then normalized to the amount of total protein mass (mg) of each sample. […]

GVINP1 = biological target: T1, GVINP1 (Homo sapiens, UniProt Q7Z2Y8); test: PISA thermal profiling, intact HepG2 cells; assay type: cell-based; conditions: 30 µM, 60 min, n=3
T1 construct: endogenous in cells; host or cells: intact HepG2 cells
Description: (§1) To further corroborate our findings, we next performed the proteome integral solubility alteration (PISA) assay in HepG2 human hepatoma cells that express high levels of CHKA. Conceptually building on the cellular thermal shift assay (CETSA) with mass spectrometry based detection,[19, 20] PISA leverages compound‐mediated stabilisation of target proteins without the need of chemical modification in intact cells. […]
carried out using REFMAC[9] and COOT,[10] and concluded when no improvements resulted for Rfree and Rwork values, and when density maps indicated no further changes were justified.
Choline Coupled Enzymatic Assay
CHKA (120 ng, 24 µg/ml) was arrayed (5 µL) into a 96 well semi-skirted real time PCR plate. 4-fold dilution series and vehicle controls (0.5% DMSO) were prepared in a separate plate. A further DMSO control was included for use with a no protein well control. […]
After mixing, bubbles were removed by centrifugation (1000 × g, 1 min) and absorbance read at 340 nm on a PheraSTAR FSX (BMG Labtech), reading every minute for 10 min. […]
by centrifugation at 30,000 × g for 20 min at 4 °C. The soluble fractions were collected to fresh tubes and further processed to be analysed with mass spectrometry. […]
Sample preparation for the quantification of metabolites by nuclear magnetic resonance (NMR) spectroscopy was performed as described previously.[13] […]

SCARB2 = biological target: T2, SCARB2 (Homo sapiens, UniProt Q14108); test: PISA thermal profiling, intact HepG2 cells; assay type: cell-based; conditions: 30 µM, 60 min, n=3
T2 construct: endogenous in cells; host or cells: intact HepG2 cells
Experimental: as §1
(§2) Experiments were performed as described earlier with few modifications. In short, 3 replicates of intact HepG2 cells were treated with 30 µM UNC0638, UNC373 or corresponding volume of DMSO in medium-free experimental buffer for 60 min at 37 °C with end-over-end rotation. For lysates: Washed […]
(§3) end-over-end rotation. Each treated cell suspension or lysate was divided into 12 aliquots and subjected to a 12-step heat gradient from 44 °C to 64 °C. All the temperature points were pooled together to form […] individual samples. Soluble fraction was separated from precipitated proteins […]
(§4) by centrifugation at 30,000 × g for 20 min at 4 °C. The soluble fractions were collected to fresh tubes and further processed to be analysed with mass spectrometry. Sample handling, TMT labelling, LC-MS/MS analysis, protein identification and data analysis was performed as described earlier.[12] […]
(§5) […]

TGOLN2 = biological target: T3, TGOLN2 (Homo sapiens, UniProt O43493); test: PISA thermal profiling, intact HepG2 cells; assay type: cell-based; conditions: 30 µM, 60 min, n=3
T3 construct: endogenous in cells; host or cells: intact HepG2 cells
Experimental: as §1, §2, §3, §4, §5

T2 sequence (Q14108 whole entry): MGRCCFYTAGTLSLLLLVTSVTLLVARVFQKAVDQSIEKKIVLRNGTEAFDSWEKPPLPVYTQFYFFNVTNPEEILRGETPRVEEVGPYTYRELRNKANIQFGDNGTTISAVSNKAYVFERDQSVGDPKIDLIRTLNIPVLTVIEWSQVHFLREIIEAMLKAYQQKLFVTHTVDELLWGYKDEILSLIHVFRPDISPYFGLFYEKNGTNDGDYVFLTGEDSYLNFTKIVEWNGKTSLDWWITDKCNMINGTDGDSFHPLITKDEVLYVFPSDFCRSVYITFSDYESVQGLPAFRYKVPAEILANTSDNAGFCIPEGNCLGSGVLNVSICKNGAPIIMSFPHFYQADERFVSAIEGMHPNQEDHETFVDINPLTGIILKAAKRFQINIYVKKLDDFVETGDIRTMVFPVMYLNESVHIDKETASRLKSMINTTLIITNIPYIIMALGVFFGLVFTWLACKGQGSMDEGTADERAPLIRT
T1 sequence (Q7Z2Y8 whole entry): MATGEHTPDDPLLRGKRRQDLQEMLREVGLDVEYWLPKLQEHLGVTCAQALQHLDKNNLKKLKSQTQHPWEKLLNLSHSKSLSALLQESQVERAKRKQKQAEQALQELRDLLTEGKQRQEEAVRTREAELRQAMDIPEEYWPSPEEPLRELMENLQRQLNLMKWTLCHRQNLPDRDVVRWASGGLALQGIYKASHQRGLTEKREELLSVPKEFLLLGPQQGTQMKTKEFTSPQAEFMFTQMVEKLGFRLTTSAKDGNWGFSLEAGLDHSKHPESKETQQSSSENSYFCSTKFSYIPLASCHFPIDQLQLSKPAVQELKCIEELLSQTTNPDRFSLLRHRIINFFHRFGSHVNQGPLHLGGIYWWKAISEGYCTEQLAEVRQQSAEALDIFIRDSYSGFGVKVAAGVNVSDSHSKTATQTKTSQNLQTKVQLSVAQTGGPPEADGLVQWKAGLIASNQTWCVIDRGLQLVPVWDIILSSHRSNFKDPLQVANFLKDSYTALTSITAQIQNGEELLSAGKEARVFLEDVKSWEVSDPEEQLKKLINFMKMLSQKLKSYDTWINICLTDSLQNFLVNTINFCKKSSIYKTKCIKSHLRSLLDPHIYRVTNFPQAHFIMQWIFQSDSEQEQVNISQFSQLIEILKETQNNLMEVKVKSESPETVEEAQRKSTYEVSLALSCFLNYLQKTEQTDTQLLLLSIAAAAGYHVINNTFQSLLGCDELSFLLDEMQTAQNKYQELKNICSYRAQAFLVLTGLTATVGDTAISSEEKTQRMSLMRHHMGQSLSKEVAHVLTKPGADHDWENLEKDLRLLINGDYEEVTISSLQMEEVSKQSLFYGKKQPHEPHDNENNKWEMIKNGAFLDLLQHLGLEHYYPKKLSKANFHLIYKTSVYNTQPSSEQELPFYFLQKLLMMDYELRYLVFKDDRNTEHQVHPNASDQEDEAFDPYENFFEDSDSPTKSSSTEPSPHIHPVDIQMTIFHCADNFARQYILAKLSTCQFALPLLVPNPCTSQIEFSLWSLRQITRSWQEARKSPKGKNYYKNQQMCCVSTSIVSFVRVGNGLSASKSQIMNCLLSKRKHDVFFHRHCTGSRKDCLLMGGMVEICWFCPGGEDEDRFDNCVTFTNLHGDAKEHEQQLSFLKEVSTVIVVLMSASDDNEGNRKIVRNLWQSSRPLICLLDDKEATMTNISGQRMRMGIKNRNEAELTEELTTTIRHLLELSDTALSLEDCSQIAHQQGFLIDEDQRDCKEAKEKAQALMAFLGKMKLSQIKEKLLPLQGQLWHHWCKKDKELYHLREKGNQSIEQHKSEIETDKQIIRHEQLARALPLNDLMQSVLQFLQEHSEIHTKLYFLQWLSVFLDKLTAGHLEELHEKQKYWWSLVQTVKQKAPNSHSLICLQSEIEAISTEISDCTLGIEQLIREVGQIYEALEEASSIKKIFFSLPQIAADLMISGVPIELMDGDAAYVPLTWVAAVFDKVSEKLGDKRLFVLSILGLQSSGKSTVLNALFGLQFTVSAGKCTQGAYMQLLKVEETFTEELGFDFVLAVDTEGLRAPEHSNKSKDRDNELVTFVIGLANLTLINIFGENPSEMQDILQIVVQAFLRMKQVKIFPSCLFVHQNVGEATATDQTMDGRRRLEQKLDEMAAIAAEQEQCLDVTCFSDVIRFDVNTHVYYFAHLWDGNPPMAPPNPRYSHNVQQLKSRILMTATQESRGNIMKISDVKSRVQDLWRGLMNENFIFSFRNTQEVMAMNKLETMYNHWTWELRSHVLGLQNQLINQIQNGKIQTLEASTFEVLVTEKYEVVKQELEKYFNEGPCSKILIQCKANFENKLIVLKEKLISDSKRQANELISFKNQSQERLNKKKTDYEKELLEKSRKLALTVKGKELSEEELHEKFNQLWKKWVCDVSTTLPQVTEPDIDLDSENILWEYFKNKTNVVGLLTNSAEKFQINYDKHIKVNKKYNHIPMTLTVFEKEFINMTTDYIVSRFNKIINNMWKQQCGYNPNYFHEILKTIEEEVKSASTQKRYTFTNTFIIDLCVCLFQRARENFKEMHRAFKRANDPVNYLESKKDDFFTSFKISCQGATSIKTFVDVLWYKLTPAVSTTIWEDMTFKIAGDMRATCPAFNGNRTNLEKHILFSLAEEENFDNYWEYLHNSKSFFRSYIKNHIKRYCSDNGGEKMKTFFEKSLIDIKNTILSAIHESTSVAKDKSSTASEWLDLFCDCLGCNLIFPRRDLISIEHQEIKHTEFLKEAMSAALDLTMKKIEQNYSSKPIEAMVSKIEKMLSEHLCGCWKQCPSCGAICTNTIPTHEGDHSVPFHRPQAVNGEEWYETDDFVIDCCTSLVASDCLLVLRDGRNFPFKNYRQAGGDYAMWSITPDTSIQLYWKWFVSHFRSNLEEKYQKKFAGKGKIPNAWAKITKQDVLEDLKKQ
T3 sequence (O43493 22-437): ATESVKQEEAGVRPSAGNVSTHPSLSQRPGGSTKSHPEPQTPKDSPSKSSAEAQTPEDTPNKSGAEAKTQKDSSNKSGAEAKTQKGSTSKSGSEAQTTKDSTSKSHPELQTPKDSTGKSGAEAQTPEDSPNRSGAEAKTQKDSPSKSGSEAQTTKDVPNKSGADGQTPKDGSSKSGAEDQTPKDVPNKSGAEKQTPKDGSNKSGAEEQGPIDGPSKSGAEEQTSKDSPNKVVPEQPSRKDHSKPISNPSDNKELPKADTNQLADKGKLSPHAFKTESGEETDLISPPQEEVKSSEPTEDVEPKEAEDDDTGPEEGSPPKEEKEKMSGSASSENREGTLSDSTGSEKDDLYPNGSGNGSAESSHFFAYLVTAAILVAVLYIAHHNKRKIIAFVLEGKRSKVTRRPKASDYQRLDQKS

Structure (SMILES): COc1cc2c(NC3CCN(C(C)C)CC3)nc(C3CCCCC3)nc2cc1OCCCN1CCCC1 [UNC0638]
- betaine [1]: did not observe changes
- intracellular choline levels [1]: not significantly affected
- phosphocholine (pCho) formation/levels relative to control [1]: reduction of pCho formation; also recorded: significantly reduced
- sn‐glycerophosphocholine (GPC) [1]: not significantly affected
- extracellular choline uptake [1]: decrease in extracellular choline uptake
- effect_CETSA_Intact (PISA amplitude), GVINP1 (GVINP1): 0.358
- effect_CETSA_Intact (PISA amplitude), SCARB2 (SCARB2): 0.251
- effect_CETSA_Intact (PISA amplitude), TGOLN2 (TGOLN2): 0.53

Structure (SMILES): COc1cc2c(N(C)C3CCN(C(C)C)CC3)nc(C3CCCCC3)nc2cc1OCCCN1CCCC1 [UNC0737]
- betaine [1]: did not observe changes
- intracellular choline levels [1]: not significantly affected
- phosphocholine (pCho) formation/levels relative to control [1]: reduction of pCho formation
- sn‐glycerophosphocholine (GPC) [1]: not significantly affected
- extracellular choline uptake [1]: decrease in extracellular choline uptake
- phosphocholine (pCho) formation/levels relative to control ([1]; listed as UN0737): significantly reduced
- effect_CETSA_Intact (PISA amplitude), GVINP1 (GVINP1): 0.871
- effect_CETSA_Intact (PISA amplitude), SCARB2 (SCARB2): 0.514
- effect_CETSA_Intact (PISA amplitude), TGOLN2 (TGOLN2): 0.571
